Here are results for one substance from patent US20250136650A1, “COMPOSITIONS AND METHODS FOR DNA BINDING AND TRANSCRIPTIONAL REGULATION” (THE UNIVERSITY OF CHICAGO, priority 2021, published 2025).

Entries after “also recorded” stand apart in the source; their conditions may differ.

The test system of one data set is HIF1α. The experiment in a line: Western blot of HIF1α under hypoxia, HeLa. It counts as cell-based, human. Conditions: hypoxia 1% O2 6 hr. How it is done: To study the effects of STR22 on hypoxia-induced gene transcription factor DNA binding and target gene expression, the induction of HIF1α and downstream HRE-target genes like VEGFA, PDK1, PGK1 and GLUT1 in response to acute hypoxia (e.g., 1% 02 for 6 hr) was validated.
Immunoblotting. Following indicated treatments, cells were first washed with ice-cold PBS. Whole-cell extracts were prepared by directly lysing cells with Laemmli sample buffer (Bio-rad, 1610747) supplemented with 2-Mercaptoethanol (Gibco, 21985023), protease inhibitor (Roche, 4693159001), PMSF (Roche, 10837091001) and phosphatase inhibitor (GB-450) at 4° C. Finally, protein samples were boiled at 95° C. for 5 mins. Western blotting was performed using antibodies for XBP1 (Biolegend, 9D11A43), HIF1α (Novus Biologicals, NB100-479), GAPDH (Santa Cruz Biotech, sc-32233) and α-tubulin (Invitrogen, MA1-19401) were used. Blots were imaged using Li—COR Odyssey Fc.
For orientation: In western blotting, separated proteins are transferred to a membrane and probed.

Data set [1] in a line: LCMS detection of STR22 in blood after injection. In kind it is in vivo, mouse. Conditions: healthy mice, IP and IV injections. How it is done: STR22 at various provided concentrations were added to 10× diluted plasma then added to 4× volume of methanol, centrifuged and used for LCMS detection (FIG. 112). […] Blood was collected through submandibular bleed at different time points and analyze via established extraction and LCMS methods. […] Body weight change after a single injection of STR22 through intravenous (IV) or subcutaneous (Sub) was also measured.

In data set [2] the test system is HeLa cells. The data set is described as follows: PAGE fluorescence gel analysis of STR uptake. It counts as cell-based, human. As to conditions: FITC-labeled, 5 μM, 6-48 hrs. How it is done: PAGE Gel Analysis of STR Uptake. Approximately 1×10^5 HeLa cells were seeded in each well of a 12-well plate. Cells were treated with 5 μM of either FITC-STR4 or FITC-STR22 for 6, 12, 24 and 48 hrs. After the indicated treatment time, media was aspirated, cells were washed with PBS (2×1 mL) and treated with 0.25% trypsin (0.2 mL) for 5 min at 37° C. The trypsin was quenched with the addition of 1 mL of media and the detached cells were transferred to a microcentrifuge tube and centrifuged at 2000 g for 1.5 min. The media was aspirated, 20 μL of RIPA buffer (50 mM Tris, pH 7.4, 150 mM NaCl, 0.25% deoxycholate, 1% NP-40, 1 mM EDTA) was added and cells were incubated for 10 min on ice. After lysis, 6.6 μL of 4×SDS loading buffer was added, samples were heated to 95° C. for 5 minutes, cooled to RT and resolved on a 4-20% Tris-glycine SDS-PAGE gel with a fluorescent filter to image FITC-labeled molecules.

The subject of data set [3] is HeLa cells. The data set is described as follows: Fluorescence microscopy of cell penetration. It counts as cell-based, human. How it is done: HeLa cells were treated with STR4-FITC (FIG. 4) or STR22-FITC (FIG. 5), at 5 μM for up to 24 hours. […] STR22 was retained at high levels for at least 24 hours following cell treatment.
Fluorescence Microscopy and Quantitative Analysis. HeLa cells were seeded in 12-well chamber slides with 2,500 cells per well (Ibidi, 81201). Once cells reached 40-50% confluency, they were treated with either DMSO, or 5 μM FITC-labeled STR for indicated durations. For shorter treatment times (<24 hrs), cells were grown to 70-80% confluency before start of treatment.
At the end of treatment, cells were washed with phosphate buffered saline (PBS) four times, fixed with 4% formaldehyde in PBS at room temperature for 10 mins, and then washed twice with PBS. Nuclei were labeled with DAPI (Thermo, D1306) in PBS at room temperature for 3 mins. Rubber gaskets and chambers were removed, and slides were dried in the dark at room temperature. When dry, cover glass (Fisher, #12-545 M) was mounted with 50 μL anti-fade mounting solution (Invitrogen, P36961), and sealed with nail polish. A Leica SP8 Laser Scanning Confocal with HyD detectors was used to image a single focal plane to accurately detect the DAPI and FITC signal. Identical microscope acquisition parameters were set and used within experiments to control for exposure. […] Loss-less TIFF files were employed to quantify fluorescence intensity.

In data set [4] the test system is MDA-MB-231 cells, HRE-regulated genes (GLUT1, VEGFA, PGK1). The data set is described as follows: qPCR of hypoxia-induced genes, MDA-MB-231. It counts as cell-based, human. Conditions: MDA-MB-231, 20 μM. How it is done: The effect of STR22 on cell growth and invasion in culture under normoxic or hypoxic conditions was determined.
Real-Time PCR. mRNA was extracted using RNeasy plus Mini Kit (Qiagen). 1.5 μg mRNA sample was reverse transcribed into cDNA using a reverse transcription kit (Invitrogen A48570) and then subjected to SYBR-green based real-time PCR analysis (Invitrogen A25741). Primers used: […]
(In general: In qPCR the cycle at which signal appears reflects the starting amount.)

In a further data set the test system is MDA-MB-231 cells. The experiment in a line: Trypan blue cell viability. It counts as cell-based, human. As to conditions: MDA-MB231, 20 μM, 24 hours. An excerpt:
Trypan Blue Cell Viability Assay. […] The cell suspension was then collected and subjected for trypan blue viability reading using trypan blue cell viability analyzer (Beckman Coulter Vi-CELL XR).

For the substance “XBP1-derived stapled dimer: RRK^KNR^AAQTARDRKKA#LSELEQQVVDLE linked to RRK^KNR^AAQTARDRKKARLSEL#QQVVDLE; FIG. 27 [STR22]”, the “induction of HIF1α protein” value in the data set on HIF1α is on record as “did not affect the induction of HIF1α protein; also recorded: not affected”. The detection in blood result in data set [1] was “can be detected in blood”. Further, the “full-length compound inside cells (fluorescence gel)” value in the data set on HeLa cells [2] is listed as “significantly higher concentrations compared to STR4; also recorded: stable over time”. Besides, in the data set with HeLa cells [3] (FITC-labeled analogs, 12 hours), the “intracellular distribution / fluorescence (confocal)” value is “distributed throughout both cytosolic and nuclear compartments”. Further, the “penetration of HeLa cells” value in the data set on HeLa cells [3] (FITC-labeled, 5 μM, up to 24 hours) is reported as “penetration”. The “hypoxia-induced gene expression (qPCR)” value in data set [4] was “significantly inhibited expression of downstream HRE-regulated target gene mRNAs; also recorded: reduction in hypoxia-induced gene expression; also recorded: inhibited this induction”. In addition, in the data set with MDA-MB-231 cells, the cell viability entry is “did not impact cell viability”.
